Some test systems named below: IGROV1 ovarian; KM12 colon; RPMI-8226 leukemia; SK-MEL-2 melanoma; MCF7 breast; SNB-75 CNS; SF-268 CNS; SK-OV-3 ovarian; UACC-62 melanoma; HT29 colon; NCI-H226 lung; A498 renal.
Holding throughout (test): NCI anticancer screen, dose series, 48 h

SMILES strings stand for the structures.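 Protocol summary: plate cells (96-well), add compound at 5 concentrations, incubate 48 h, interpolate endpoints linearly. GI50 = concentration required for 50% inhibition of growth. At the TGI there is no net growth.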 Where only a bound is given, the exact number is not on record here.

For 16 molecules, TGI and GI50 results are on record in PubChem BioAssay (NCI).

On to `CCOC(=O)C1=C(C)OC2(O)C=CC(O)=C3C(=O)N(c4ccccc4)C(=O)C312` (stereo not given), for which the TGI in the experiment with IGROV1 ovarian is 68.2 µM; in the experiment with KM12 colon, more than 100 µM; with RPMI-8226 leukemia it was 86.1 µM; in the experiment on SK-MEL-2 melanoma it was 68.4 µM; in the experiment with MCF7 breast, 79.4 µM; in the experiment on SNB-75 CNS, 87.8 µM. Also, the TGI with SF-268 CNS is more than 100 µM; with SK-OV-3 ovarian, more than 100 µM; in the experiment with UACC-62 melanoma, 76.7 µM; in the experiment on HT29 colon, 76.7 µM; in the experiment on NCI-H226 lung it was 80.3 µM.

`NN(CC(=O)O)CC(=O)O`: the TGI in the experiment with IGROV1 ovarian, with KM12 colon, with RPMI-8226 leukemia, with SK-MEL-2 melanoma, in the experiment with MCF7 breast and in the experiment on SF-268 CNS was more than 100 µM each time. The TGI in the experiment on SK-OV-3 ovarian, in the experiment with UACC-62 melanoma, in the experiment with A498 renal, in the experiment on HT29 colon and in the experiment with NCI-H226 lung was more than 100 µM throughout.

With `CN1CCc2[nH]c3ccccc3c2C1`, the TGI with IGROV1 ovarian, with KM12 colon, in the experiment with RPMI-8226 leukemia, in the experiment with SK-MEL-2 melanoma, in the experiment on MCF7 breast and with SNB-75 CNS was more than 100 µM each time. Moreover, the TGI in the experiment with SF-268 CNS, with SK-OV-3 ovarian, with UACC-62 melanoma, with A498 renal, in the experiment on HT29 colon and with NCI-H226 lung was more than 100 µM in each case.

Regarding `Nc1ncnc2nc[nH]c12`, the TGI with IGROV1 ovarian was more than 250 µM; with KM12 colon it was more than 158 µM; in the experiment on RPMI-8226 leukemia it was more than 250 µM; with SK-MEL-2 melanoma, more than 250 µM; with MCF7 breast, more than 162 µM; with SNB-75 CNS, more than 155 µM. For the same molecule, the TGI in the experiment with SF-268 CNS is more than 250 µM; with SK-OV-3 ovarian, more than 250 µM; in the experiment on UACC-62 melanoma, more than 250 µM; with A498 renal, 11.1 µM; in the experiment on HT29 colon, more than 250 µM; with NCI-H226 lung it was more than 250 µM. Further, the GI50 in the experiment with SF-268 CNS was 143 µM.

On to `COc1cc2c(c(O)c1OC)-c1c(cc(OC)c(OC)c1OC)CC(C)C(C)C2` (stereo not given), for which the TGI in the experiment with IGROV1 ovarian, with KM12 colon, in the experiment on RPMI-8226 leukemia, with SK-MEL-2 melanoma, with MCF7 breast and in the experiment with SNB-75 CNS was more than 100 µM in each case. The TGI in the experiment with SF-268 CNS, in the experiment with SK-OV-3 ovarian, with UACC-62 melanoma, in the experiment with A498 renal, with HT29 colon and in the experiment with NCI-H226 lung was more than 100 µM in each case.

As to `O=C([O-])C[n+]1ccccc1`, the TGI in the experiment on IGROV1 ovarian, in the experiment with KM12 colon, in the experiment on RPMI-8226 leukemia, in the experiment with SK-MEL-2 melanoma, in the experiment on MCF7 breast and in the experiment with SNB-75 CNS was more than 100 µM throughout. Besides, the TGI in the experiment with SF-268 CNS, with SK-OV-3 ovarian, in the experiment with UACC-62 melanoma, in the experiment on A498 renal, in the experiment with HT29 colon and with NCI-H226 lung was more than 100 µM each time.

Turning to `CC(CCN)(CCN)[N+](=O)[O-]`, the TGI in the experiment on IGROV1 ovarian, with KM12 colon, with RPMI-8226 leukemia, with SK-MEL-2 melanoma, in the experiment on MCF7 breast and in the experiment on SNB-75 CNS was more than 100 µM in each case. For the same molecule, the TGI with SF-268 CNS, with SK-OV-3 ovarian, with UACC-62 melanoma, with A498 renal, with HT29 colon and with NCI-H226 lung was more than 100 µM throughout.

In the case of `CN(C)CCCSc1nc2ccccc2[nH]1`, the TGI in the experiment on IGROV1 ovarian, in the experiment with KM12 colon, in the experiment with RPMI-8226 leukemia, in the experiment on SK-MEL-2 melanoma, in the experiment on MCF7 breast and in the experiment on SNB-75 CNS was more than 100 µM throughout. The TGI with SF-268 CNS, in the experiment on SK-OV-3 ovarian, in the experiment with UACC-62 melanoma, with A498 renal, in the experiment on HT29 colon and in the experiment with NCI-H226 lung was more than 100 µM each time.

Turning to `CCCCCCCCCCCCCCCCCCOc1ccccc1CC(=O)OCC[N+]1(C)CCCCC1`, the GI50 was 2.07 µM in the experiment on MCF7 breast; 1.39 µM in the experiment with SNB-75 CNS; 18.2 µM in the experiment with SK-OV-3 ovarian; 2.53 µM in the experiment with A498 renal; 1.61 µM with HT29 colon; 2.18 µM in the experiment on NCI-H226 lung. In addition, the TGI with MCF7 breast worked out at 4.97 µM; in the experiment on SNB-75 CNS, 3.72 µM; with SK-OV-3 ovarian, 38.2 µM; in the experiment on A498 renal, 9.71 µM; in the experiment on HT29 colon, 3.1 µM; in the experiment on NCI-H226 lung, 6.25 µM.

On to `O=C(O)c1cc([N+](=O)[O-])cc2c(=O)c3cnccc3[nH]c12`, for which the TGI in the experiment on IGROV1 ovarian, in the experiment on KM12 colon, in the experiment with RPMI-8226 leukemia, in the experiment on SK-MEL-2 melanoma, in the experiment with MCF7 breast and with SNB-75 CNS was more than 100 µM in each case. The TGI in the experiment with SK-OV-3 ovarian, with UACC-62 melanoma, with A498 renal, in the experiment with HT29 colon and with NCI-H226 lung was more than 100 µM in each case.

`CN1CCOC(c2ccc(Cl)cc2)O1` (stereo not given): the TGI with IGROV1 ovarian, in the experiment on KM12 colon, in the experiment with SK-MEL-2 melanoma, in the experiment with MCF7 breast, with SNB-75 CNS and in the experiment with SF-268 CNS was more than 100 µM each time. The TGI in the experiment on SK-OV-3 ovarian, in the experiment with UACC-62 melanoma, in the experiment on A498 renal, in the experiment on HT29 colon and in the experiment on NCI-H226 lung was more than 100 µM each time.

`O=C(Nc1ccc(Cl)cc1)c1cc2cc(N=Nc3ccccc3Cl)ccc2oc1=O`: the TGI in the experiment on IGROV1 ovarian is 48.1 µM; with RPMI-8226 leukemia, 30.3 µM; in the experiment on SK-MEL-2 melanoma, 47 µM; in the experiment on SNB-75 CNS, 72.5 µM; with SF-268 CNS, more than 100 µM; with SK-OV-3 ovarian, 84 µM. For the same molecule, the TGI in the experiment with UACC-62 melanoma turned out to be 26.6 µM; in the experiment on HT29 colon it was 29.6 µM; in the experiment on NCI-H226 lung it was 46.9 µM.

As for `CN(CCCCCl)P(=O)(OCc1ccc([N+](=O)[O-])o1)OC[C@H]1O[C@@H](n2cc(F)c(=O)[nH]c2=O)C[C@@H]1O` (stereo not given in full), the TGI with IGROV1 ovarian is more than 63.5 µM; with KM12 colon it was 28.7 µM; in the experiment with RPMI-8226 leukemia it was 38.4 µM; in the experiment with SK-MEL-2 melanoma it was 36.1 µM; in the experiment on MCF7 breast, 4.45 µM; with SNB-75 CNS, 6.95 µM. Also, the TGI is 13.2 µM in the experiment on SF-268 CNS; 34.1 µM in the experiment on SK-OV-3 ovarian; 6.48 µM in the experiment with UACC-62 melanoma; 0.0982 µM with A498 renal; more than 100 µM in the experiment with HT29 colon; more than 86.6 µM in the experiment with NCI-H226 lung.

For `CCOc1ccc(NC(=O)C(=O)CC(=O)c2sc(NNC(C)=O)nc2C)cc1`, the TGI in the experiment on IGROV1 ovarian, in the experiment on KM12 colon, in the experiment with RPMI-8226 leukemia, in the experiment with SK-MEL-2 melanoma, in the experiment with SNB-75 CNS and in the experiment with SF-268 CNS was more than 100 µM throughout. For the same molecule, the TGI in the experiment on SK-OV-3 ovarian, in the experiment on UACC-62 melanoma, in the experiment with A498 renal, in the experiment with HT29 colon and in the experiment with NCI-H226 lung was more than 100 µM each time.

Regarding `C[C@]12C=CC(=O)C=C1CC[C@@H]1[C@@H]2CC[C@]2(C)OC(=O)CC[C@@H]12`, the TGI was more than 475 µM with IGROV1 ovarian; more than 500 µM in the experiment with KM12 colon; more than 500 µM with RPMI-8226 leukemia; more than 488 µM in the experiment with SK-MEL-2 melanoma; more than 500 µM with MCF7 breast; more than 487 µM in the experiment on SNB-75 CNS. In addition, the TGI with SF-268 CNS is more than 500 µM; in the experiment on SK-OV-3 ovarian it was more than 500 µM; in the experiment with UACC-62 melanoma it was 500 µM; with A498 renal, 496 µM; in the experiment on HT29 colon it was more than 500 µM; in the experiment on NCI-H226 lung it was more than 493 µM.

`CC(C)=CCC/C(C)=C/CC/C(C)=C/CC/C(C)=C/C=C/C=C(\C)CC/C=C(\C)CC/C=C(\C)CCC=C(C)C`: the TGI is 36.4 µM with IGROV1 ovarian; 63.3 µM with KM12 colon; more than 100 µM in the experiment with RPMI-8226 leukemia; more than 100 µM in the experiment with SK-MEL-2 melanoma; more than 100 µM in the experiment on MCF7 breast; more than 100 µM in the experiment on SNB-75 CNS. Further, the TGI in the experiment with SF-268 CNS is more than 81.4 µM; in the experiment on SK-OV-3 ovarian, more than 100 µM; in the experiment with UACC-62 melanoma, more than 100 µM; in the experiment on A498 renal, more than 100 µM; with HT29 colon, more than 100 µM; in the experiment with NCI-H226 lung, more than 100 µM.
